Test results: paper PMC3215271 (European journal of pharmacology, 2011)
pIC50, pKi: −log10 of the molar value. Where “and” joins values, the source holds several entries; their conditions need not be identical. Equal values may be shown once. Entries after “also recorded” stand apart in the source; their conditions may differ.

Assays:
mechanical hyperalgesia [1] = conditions: chronic constriction injury; i.p.; ref Holtman et al., 2010b; cited from earlier work
rotarod performance [2] = conditions: ref Holtman et al., 2010b, cited from earlier work
[3] = test system: formalin-induced flinching behavior; conditions: formalin model; i.p.; ref Holtman et al., 2010b; cited from earlier work
[4] = in vivo; cited from earlier work
[5] = biological target: α6/α3β4 nicotinic acetylcholine receptor (Rattus norvegicus, UniProt P04757+P12392+P43143); conditions: 95% CI in parentheses
[6] = biological target: T1, human serotonin(3) receptor (Homo sapiens, UniProt P46098); assay: Competition radioligand binding, [3H]LY278584; conditions: for pKi: 5HT3
T1 sequence (P46098 24-478): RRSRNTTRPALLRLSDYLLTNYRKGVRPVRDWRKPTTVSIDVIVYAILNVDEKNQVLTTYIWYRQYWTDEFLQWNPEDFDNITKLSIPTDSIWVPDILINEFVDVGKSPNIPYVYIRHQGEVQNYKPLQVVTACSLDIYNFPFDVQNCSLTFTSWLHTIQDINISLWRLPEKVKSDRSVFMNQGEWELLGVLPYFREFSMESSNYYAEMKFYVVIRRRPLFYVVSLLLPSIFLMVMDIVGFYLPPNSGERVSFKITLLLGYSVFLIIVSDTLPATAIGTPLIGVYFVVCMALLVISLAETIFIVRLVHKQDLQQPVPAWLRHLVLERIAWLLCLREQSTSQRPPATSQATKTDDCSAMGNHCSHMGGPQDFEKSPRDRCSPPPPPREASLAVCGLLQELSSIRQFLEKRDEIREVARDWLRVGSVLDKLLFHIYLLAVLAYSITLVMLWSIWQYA

[7] = biological target: α2β4 nicotinic acetylcholine receptor (Rattus norvegicus, UniProt P12389+P12392); conditions: 95% CI in parentheses
rat κ-opioid receptor = rat κ-opioid receptor (Rattus norvegicus, UniProt P34975); assay: Competition radioligand binding, [3H]U69593; conditions: 95% CI in parentheses
[8] = biological target: α7 nicotinic acetylcholine receptors (Rattus norvegicus, UniProt Q05941); assay: Voltage clamp electrophysiology, cloned α7 nicotinic receptor in Xenopus oocytes; conditions: 95% CI in parentheses
[9] = biological target: α4β4 nicotinic acetylcholine receptor (Rattus norvegicus, UniProt P09483+P12392); conditions: 95% CI in parentheses
[10] = biological target: rat γ-aminobutyric acid(B)(1b,2) receptor (Rattus norvegicus, UniProt Q9Z0U4); assay: Competition radioligand binding, [3H]CGP54626; conditions: GABAB; [3H]CGP54626 2 nM
mechanical hyperalgesia [11] = assay: Chronic constriction nerve injury model of neuropathic pain; format: in vivo, rat
[12] = biological target: α1β1δε nicotinic acetylcholine receptor (Mus musculus, UniProt P02716+P04756+P09690+P20782); conditions: 95% CI in parentheses
[13] = biological target: α2β2 nicotinic acetylcholine receptor (Rattus norvegicus, UniProt P12389+P12390); conditions: 95% CI in parentheses
tail flick latency = assay: Thermal acute nociception; format: in vivo, rat; conditions: for maximum possible effect: tail-flick
[14] = biological target: α3β4 nicotinic acetylcholine receptor (Rattus norvegicus, UniProt P04757+P12392); conditions: 95% CI in parentheses
[15] = biological target: α3β2 nicotinic acetylcholine receptor (Rattus norvegicus, UniProt P04757+P12390); conditions: 95% CI in parentheses
human μ-opioid receptor = human μ-opioid receptor (Homo sapiens, UniProt P35372); assay: Competition radioligand binding, [3H]DAMGO; conditions: 95% CI in parentheses
[16] = test system: nicotinic acetylcholine receptor subtype; assay: Agonist activity at nicotinic receptor subtypes in Xenopus oocytes; conditions: any nicotinic acetylcholine receptor subtype evaluated; data not shown
[17] = biological target: rat γ-aminobutyric acid(A) receptor; assay: Competition radioligand binding, [3H]muscimol, rat brain membranes; conditions: GABAA; [3H]muscimol 5 nM
[18] = test system: α4β2* nicotinic acetylcholine receptors; conditions: binding assays; ref Zhang et al., 2008; cited from earlier work
[19] = test system: formalin-induced flinching behavior; assay: Rodent model of inflammatory pain; format: in vivo, rat; conditions: for ED50 (95% CI): formalin test, i.p. 15 min prior to formalin, rat
[20] = test system: nicotinic acetylcholine receptors mediating nicotine-evoked dopamine release; conditions: ref Zhang et al., 2008; cited from earlier work
[21] = biological target: α9α10 nicotinic acetylcholine receptors (Rattus norvegicus, UniProt P43144+Q9JLB5)
[22] = biological target: α6/α3β2β3 nicotinic acetylcholine receptor (Rattus norvegicus, UniProt P04757+P12390+P12391+P43143); conditions: 95% CI in parentheses
[23] = biological target: α4β2 nicotinic acetylcholine receptors (Rattus norvegicus, UniProt P09483+P12390)
rotarod performance [24] = assay: Motor coordination; format: in vivo, rat
[25] = chronic constriction injury paw, 3600 μg/kg i.p.

In the case of `c1cncc([C@@H]2CCCN2)c1` [S(−) nornicotine], the ED50 (mechanical hyperalgesia [1]) is given as 5.2 (3.1–8.5) mg/kg, the “ED50 for motor impairment vs. analgesia, fold higher” value (rotarod performance [2]; rotarod vs chronic constriction injury and formalin) is given as 3–9 fold and the ED50 (rotarod performance [2]; rotarod, motor impairment, i.p.) is given as 13.6 (9.2–19.9) mg/kg. For the same molecule, the ED50 [3] was 1.5 (0.6–3.6) mg/kg.

For α-conotoxin Vc1.1, the adverse effects [4] is listed as “did not produce any adverse effects”.

In the case of `C(#Cc1cc(C#CCCC[n+]2cccc(-c3ccccc3)c2)c(C#CCCC[n+]2cccc(-c3ccccc3)c2)cc1C#CCCC[n+]1cccc(-c2ccccc2)c1)CCC[n+]1cccc(-c2ccccc2)c1.[Br-].[Br-].[Br-].[Br-]` [ZZ-204G, 5,5′,5″, 5‴-(1,2,4,5-benzenetetrayl)tetrakis-[1-(3-phenylpyridinium)-4-pentyne] tetrabromide], the “Hill Slope” value [5] was 1.2 (0.73–1.8), the pIC50 ([5]; oocytes, acetylcholine 100 μM) was 5.21 and the pKi ([6]; [3H]LY278584 0.3 nM, 95% CI in parentheses) was 5.65. The pKi ([6]; displacing [3H]LY27854) was 5.66, the “Hill Slope” value ([6]; 5HT3 binding, 95% CI in parentheses) was 1.05 (0.73–1.37) and the “Hill Slope” value [7] was 1.36 (0.98–1.7). The pIC50 ([7]; oocytes, acetylcholine 100 μM) was 5.54, the “Hill Slope” value (rat κ-opioid receptor; κ-opioid binding) was 0.95 (0.67–1.2) and the pKi (rat κ-opioid receptor; κ-opioid, [3H]U69593 0.3 nM) was 6.11. For the same molecule, the “Hill Slope” value [8] was 1.03 (0.48–1.6), the pIC50 ([8]; oocytes, acetylcholine 200 μM) was 8.06 and the “Hill Slope” value [9] was 1.6 (0.99–2.2). The pIC50 ([9]; oocytes, acetylcholine 100 μM) was 5.76, the pKi [10] was < 5.00 and the maximum possible effect (mechanical hyperalgesia [11]; [25]) was 81.9±7.6%. For the same molecule, the “time maximum possible effect was maintained after administration” value (mechanical hyperalgesia [11]; [25]) was 240 min, the “time to reach maximum possible effect” value (mechanical hyperalgesia [11]; [25]) was ≤ 60 min and the “ED50 (95% CL)” value (mechanical hyperalgesia [11]; chronic constriction injury, paw pressure test, mechanical hyperalgesia, i.p., rat) was 96.2 (35.7–255.3) μg/kg. For the same molecule, the “AUC0–120min (antihyperalgesic effect)” value (mechanical hyperalgesia [11]; chronic constriction injury, 3.6 μg/kg i.p.) was 932.8±672.1, the “AUC0–120min (antihyperalgesic effect)” value (mechanical hyperalgesia [11]; chronic constriction injury, 36 μg/kg i.p.) was 1845.3±1008.0 and the “AUC0–120min (antihyperalgesic effect)” value (mechanical hyperalgesia [11]; chronic constriction injury, 360 μg/kg i.p.) was 3126.6±840.9. For the same molecule, the “AUC0–120min (antihyperalgesic effect)” value (mechanical hyperalgesia [11]; chronic constriction injury, 3600 μg/kg i.p.) was 6946.9±1632.2, the “Hill Slope” value [12] was 1.61 (1.2–2.1) and the pIC50 ([12]; oocytes, acetylcholine 10 μM) was 6.92. The “Hill Slope” value [13] was 1.25 (0.98–1.5), the pIC50 ([13]; oocytes, acetylcholine 100 μM) was 5.63 and the “antinociceptive effect in the tail-flick assay” value (tail flick latency; 3.6, 36, 360 μg/kg i.p. vs saline) was “not antinociceptive; also recorded: did not significantly differ from that of saline control”. For the same molecule, the maximum possible effect (tail flick latency; 3.6 μg/kg i.p.) was 8.4±4.6%, the maximum possible effect (tail flick latency; 36 μg/kg i.p.) was 6.2±1.75% and the maximum possible effect (tail flick latency; 360 μg/kg i.p.) was 15.6±2.4%. For the same molecule, the “Hill Slope” value [14] was 1.56 (1.1–2.0), the pIC50 ([14]; oocytes, acetylcholine 100 μM) was 6.10 and the “Hill Slope” value [15] was 1.11 (0.28–1.9). The pIC50 ([15]; oocytes, acetylcholine 100 μM) was 6.12, the “Hill Slope” value (human μ-opioid receptor; μ-opioid binding) was 1.1 (0.94–1.3) and the pKi (human μ-opioid receptor; μ-opioid, [3H]DAMGO 0.3 nM) was 6.18. For the same molecule, the agonist activity [16] was “No agonist activity”, the pKi [17] was < 5.00 and the “affinity for α4β2* nicotinic acetylcholine receptors” value [18] was “poor affinity”. The “ED50 (95% CI)” value ([19]; the first phase (0–10 min)) was 16.2 (2.9–90.3) μg/kg, the “ED50 (95% CI)” value ([19]; the second phase (20–60 min)) was 2.12 (1.24 – 5.65) μg/kg and the “greater potency against formalin-evoked inflammatory pain than neuropathic pain” value ([19]; formalin vs chronic constriction injury) was ~ 50 fold. The “antagonism at nicotinic receptors mediating nicotine-evoked dopamine release” value [20] was “weak antagonist”, the “inhibition of the acetylcholine response” value ([21]; α9α10, 10 nM compound, 0.01 µM) was 93.9 ± 1.4% and ~ 95% and the “effect on current with Ca++ in buffer replaced with equimolar Ba++” value ([21]; α9α10, 100 nM compound, n=3, data not shown) was “abolished the current”. For the same molecule, the “Hill Slope” value ([21]; α9α10, 95% CI in parentheses) was 0.84 (0.59–1.1), the reversibility of block ([21]; α9α10, washout of compound) was “Block was reversed upon washout” and the “potency at κ- and μ-opioid receptors, fold less than at α9α10” value ([21]; κ- and μ-opioid receptors vs α9α10) was 1000 fold. For the same molecule, the “Hill Slope” value [22] was 0.44 (0.33–0.56), the pIC50 ([22]; oocytes, acetylcholine 100 μM) was 7.01 and the “block of acetylcholine-induced currents” value ([23]; 100 nM compound) was ~ 5% and < 5%. The “Hill Slope” value ([23]; 95% CI in parentheses) was 1.05 (0.73–1.4), the pIC50 ([23]; oocytes, acetylcholine 100 μM, 95% CI in parentheses) was 5.42 and the “motor effect at highest antihyperalgesic dose” value (rotarod performance [24]; naïve rats, 3,600 ug/kg) was “significant motor effect”. For the same molecule, the “ED50 (95% CI), motor incoordination” value (rotarod performance [24]; rotarod performance, intact rats, i.p.) was 1884 (942–3767) μg/kg.
